Measured values from patent US20170095467A1, “ENCAPSULATION OF ISOQUINOLINE ALKALOIDS” (Rhizofeed, LLC, priority 2015, published 2017).

Tests used:
[1] = Heat degradation of alkaloids in crude extract / extraction with heat; format: physicochemical
Procedure: Two preliminary studies involving heat were conducted. In one study, the raw bloodroot powder was placed on a heating element for 24 hours while the alkaloid was extracted. […] In a second study, a crude extract of alkaloids was placed on a heating element at 67° C. to test for degradation.

[2] = Photosensitivity of sanguinarine and chelerythrine in crude rhizome extract under short-wave UV light (HPLC); format: physicochemical
Procedure: 2 mL of each sample was then collected. All dilutions were filtered through 0.22 um syringe filter (Restek) and were stored in a dark environment held at −4° C. Mobile phases were prepared using 40% acetonitrile, 59% distilled water, and 1% acetic acid. The flow rate was 1.0000 mL/minute, and a pressure of approximately 2161.06 psi was maintained. UV visible spectroscopy was used to determine the optimum wavelength of detection, and detection was carried out at 330 nm. Preliminary studies determined that isoquinoline alkaloids are […] under UV light. In a purified state, it has been established that Sanguinarine undergoes photochemical conversion to oxysanguinarine. […] As depicted in Table 7 and FIG. 5, exposure to light or UV radiation over any period of time has a detrimental effect on the encapsulation yield. According to certain embodiments, exposure to light and UV radiation can be minimized by storing the alkaloids in dark conditions until the encapsulation process is complete or the finished product is used.

[3] = Encapsulate degradation by heat (oven / pelletization-like conditions); format: physicochemical; settings: 24 h
Procedure: (§1) The optimized encapsulation method disclosed herein was employed to produce alkaloid loaded inulin beads. These beads were subjected to both heat and light to determine the protective properties conferred by the microencapsulation process.
To determine the protection the microencapsulation process provides against heat, 1 g of inulin beads was placed in a Fischer Scientific model 605G Isotemp Oven for 24 hours at 96° C. A comparative example of sanguinarine standard that was not encapsulated was also placed in the oven.
A second study was also performed to understand the effect pelletization could have on the microcapsules. In the second study, 1 g of inulin beads was placed in a loosely covered beaker and subjected to 121° C. heat and 16 psi conditions for 20 minutes. These values are much higher in magnitude and duration than will be endured in the pelletization process for animal feed. As depicted in Table 10, the microcapsules decreased degradation by a factor of 1.62.

[4] = Encapsulate degradation by UV light; format: physicochemical
From the text: as §1
To determine the light protection provided by the microencapsulation process, 1 g of inulin beads was exposed to a UV source (115V Arthur H. Thomas Co. Lamp).

rats = settings: rat, in vivo; cited from earlier work
[5] = Crude Extract Exposed to Heat (24 Hours)
[6] = Standard Extraction (No Heat or Light Exposure)
[7] = Crude Extract Exposed to UV Light (24 Hours)
[8] = Crude Extract Exposed to UV Light (48 Hours)
[9] = Crude Extract Exposed to UV Light (72 Hours)
[10] = Crude Extract Exposed to UV Light (144 Hours)

Row | Compound | Percentage of alkaloid in Extract [1, 5] [%] | Percentage of alkaloid in Extract ([1]; Extracted with Heat (24 Hours)) [%] | Percentage of alkaloid in Extract [1, 6] [%] | Percentage of alkaloid in Extract [2, 7] [%] | Percentage of alkaloid in Extract [2, 8] [%] | Percentage of alkaloid in Extract [2, 9] [%] | Percentage of alkaloid in Extract [2, 10] [%] | Percentage of alkaloid in Extract [2, 6] [%] | Percent Degradation ([3]; 96° C.) [%] | Post-Exposure Alkaloid concentration ([3]; 96° C.) [mg/mL] | Pre-exposure Alkaloid concentration ([3]; 96° C.) [mg/mL] | Percent Degradation ([3]; 121° C., 16 psi, Sang. Only) [%] | Post-Exposure Alkaloid concentration ([3]; 121° C., 16 psi, Sang. Only) | Pre-exposure Alkaloid concentration ([3]; 121° C., 16 psi, Sang. Only) | Percent Degradation [4] [%] | Post-Exposure Alkaloid conc. [4] [mg/mL] | Pre-exposure Alkaloid conc. [4] [mg/mL] | LD50 (rats) [mg/kg]
1 | COc1ccc2c(c[n+](C)c3c4cc5c(cc4ccc23)OCO5)c1OC [Chelerythrine, chelerythrine] | 1.81 | 2.43 | 2.95 | 1.50 | 1.46 | 1.45 | 1.30 | 2.95 | – | – | – | – | – | – | – | – | – | –
2 | C[n+]1cc2c3c(ccc2c2ccc4cc5c(cc4c21)OCO5)OCO3 [Standard, sanguinarine chloride] | – | – | – | – | – | – | – | – | 25.40 | 0.229 | 0.307 | 63.30 | .07306 (Sang mg/mL | .2002 (Sang. mg/mL | 49.80 | 0.154 | 0.307 | –
3 | C[n+]1cc2c3c(ccc2c2ccc4cc5c(cc4c21)OCO5)OCO3 [Sanguinarine, sanguinarine] | 4.28 | 3.41 | 5.21 | 2.61 | 2.41 | 2.35 | 1.26 | 5.21 | – | – | – | – | – | – | – | – | – | 1658
